Reference: paper PMC8621770, “New Compounds with Bioisosteric Replacement of Classic Choline Kinase Inhibitors Show Potent Antiplasmodial Activity” (Pharmaceutics, 2021)
Read-outs that look alike come from different tables or passages of the source.

Assays:
P. falciparum strain 3D7 [1] = tested on: P. falciparum strain 3D7; parameters: method as in PMID 27616047, PMID 29880399, PMID 25089811; details: reference compounds; read-out: IC50 a (In vitro IC50 values against P. falciparum); cited from earlier work
PfCK [2] = target: T1, PfCK (Plasmodium falciparum, UniProt Q8IM71); details: reference compounds, cited from earlier work; for inhibition of PfCK depending on substrate (in words): choline kinase or ethanolamine kinase activity; for IC50: read-out: IC50 PfCK b (compound concentration required to inhibit PfCK enzyme by 50%)
T1 construct: A truncated form of PfCK (Δ79-440) featuring an N-terminal 6× His-tag; 6xHis (N); host or cells: Escherichia coli BL21 (DE3) Star

P. falciparum strain 3D7 [3] = test: Antimalarial activity, P. falciparum lactate dehydrogenase growth inhibition assay; format: cell-based, Plasmodium falciparum; details: for IC50: Plasmodium falciparum; for fold difference in antimalarial activity, bipyridinyl vs biphenylic counterparts: Fg-13 and Fg-17 vs Fg-14 and Fa-21
Description: Parasites of the P. falciparum strain 3D7 were grown in fresh group 0 positive human erythrocytes, obtained from the Centro Regional de Transfusion Sanguínea-SAS (Granada, Spain) and suspended at 5% haematocrit in RPMI 1640 containing 2% human serum, 0.2% NaHCO3, 0.5% Albumax II, 150 μM hypoxanthine, and […] gentamicin. Flasks were incubated at 37 °C, under 5% CO2 and 95% air mixture. […] The stock culture was then diluted with complete medium and non-parasitized erythrocytes to yield a haematocrit of 2% and parasitemia of 0.25%. Stock solutions of the test drugs were prepared at an initial concentration of 200 mM in DMSO, serially diluted and dispensed into triplicate in 96-well plates to yield final concentrations ranging from 0.0039 to 2 μM. The final well volume was 200 μL with a final concentration of DMSO 0.001%. Each plate also included positive growth controls, where only medium were added, and negative growth controls with 100 nM of chloroquine. […] A multidrop dispenser was used to add 50 μL of synchronized parasite culture per well. After 72 h of growth in presence of test compounds, the plates were stored frozen at −20 °C for at least 24 h. Next, they were thawed at room temperature. Parasite growth inhibition assays and IC50 determinations were carried out following the P. falciparum lactate dehydrogenase assay where parasite viability is quantified by measuring LDH activity upon APAD+ addition, a cofactor that is specific to the Plasmodium enzyme. To evaluate LDH activity, 140 μL of freshly made reaction mix, containing 143 mM sodium L-lactate, 143 μM APAD, 178.75 μM NBT, 1 U/mL diaphorase, 0.7% Tween 20 and 100 mM Tris-HCl (pH 8.0) were dispensed into plates. After 10 min of incubation in the dark at room temperature, absorbance was measured at 630 nm with a vmax precision multiwell plate reader from Molecular Devices, by using the accompanying SOFT maxPro software for analysis.

[4] = Aggregation of compound solutions for the enzymatic assays; format: physicochemical; details: even at 5 mM concentration
Description: As a result, it was difficult to measure their exact concentration, which is crucial for enzymatic assays.

PfCK [5] = target: T1, PfCK; test: Spectrophotometric coupled enzymatic assay for PfCK activity (substrate choline); format: biochemical; details: for remaining activity at 25 µM: read-out: PfCK Fractional Activity at 25 µM
Description: A truncated form of PfCK (Δ79-440) featuring an N-terminal 6× His-tag was purchased from Genescript (Piscataway, NJ, USA), cloned into a pET-28a vector and transformed into Escherichia coli BL21 (DE3) Star cells (Invitrogen, Carlsbad, CA, USA). The transformed bacteria were cultured in Luria-Bertani (LB) medium at 37 °C until OD600 = 0.6 and the expression was induced with 1 mM isopropyl β-D-1-thiogalactopyranoside (IPTG). The cell culture was grown overnight at 20 °C and 180 rpm. Cells were pelleted by centrifugation at 10,000 rpm, resuspended in 50 mM Tris/HCl pH 7.5, 500 mM NaCl, 0.2 mM phenylmethylsulphonyl fluoride (PMSF, Sigma Aldrich, St. Luis, MO, USA), DNase (Sigma Aldrich, St. Luis, MO, USA), 0.5 mM β-mercaptoethanol (Sigma Aldrich, St. Luis, MO, USA) and sonicated. Separation of the soluble from the insoluble fraction was obtained by centrifugation at 15,000 rpm and 4 °C. The target enzyme was purified by a two-step purification protocol. In the first step, the cell lysate was incubated for 45 min with Ni-NTA resin (Qiagen, Venlo, The Netherlands) in a gravity column. Then, the column was washed with 40 column volumes (CV) of 50 mM Tris/HCl pH 7.5, 300 mM NaCl, 10 mM imidazole and 1 CV of 50 mM Tris/HCl pH 7.5, 300 mM NaCl, 40 mM imidazole. Finally, the His-tagged enzyme was eluted from the column using a 50 mM Tris/HCl pH 7.5, 300 mM NaCl, 400 mM imidazole buffer. A subsequent size-exclusion chromatography step was implemented to further polish the sample using a HiPrep 26/60 Sephacryl 100 HR column (GE Healthcare, Little Chalfont, Buckinghamshire, UK) previously equilibrated with 20 mM Tris/HCl pH 7.5, 150 mM NaCl buffer. This second purification step afforded a pure protein sample. The protein production yield was estimated to be nearly 2.5 mg of recombinant enzyme per liter of bacterial culture.
A spectrophotometric 96-well plate assay for PfCK activity was established based on an assay previously described. The reaction mix was composed as follows: 100 mM Tris/HCl pH 7.5, 100 mM KCl, 10 mM MgCl2, 0.5 mM phosphoenolpyruvate, 0.25 mM NADH, 4 U of pyruvate kinase, 5 U lactate dehydrogenase, 2 mM ATP, 4 mM choline chloride and different concentrations of the selected compounds. All the necessary compounds for the assay were purchased from Sigma Aldrich (St. Luis, MO, USA) and the final assay volume was 200 μL. The enzymatic reaction was initiated by the addition of the enzyme at less than 10 nM concentration and the reaction rates were measured by monitoring the decrease in the absorbance at 340 nm for 20 min at room temperature using a Spark10M instrument (Tecan). Finally, the IC50 values for each compound were determined by plotting the enzyme fractional activity (f.a.) against the logarithm of compound concentration (log[I]). Curve-fitting was performed with a dose-response curve from Origin (OriginLab Corporation, Northampton, MA, USA), using the following equation: f.a.=1/1+10^logIC50−logI
All data points were collected in triplicate and the final dose-response curves were plotted with MATLAB (R2018a (9.4.0.813654), 2018, MathWorks, Natick, MA, USA). See curves in Figure S1 in Supplementary Materials.

[6] = Erythrocyte, P. falciparum 3D7 in human erythrocytes, 72 h, LDH readout, read-out: IC50 a (In vitro IC50 values against P. falciparum)

T1 sequence (Q8IM71 entry or part of it): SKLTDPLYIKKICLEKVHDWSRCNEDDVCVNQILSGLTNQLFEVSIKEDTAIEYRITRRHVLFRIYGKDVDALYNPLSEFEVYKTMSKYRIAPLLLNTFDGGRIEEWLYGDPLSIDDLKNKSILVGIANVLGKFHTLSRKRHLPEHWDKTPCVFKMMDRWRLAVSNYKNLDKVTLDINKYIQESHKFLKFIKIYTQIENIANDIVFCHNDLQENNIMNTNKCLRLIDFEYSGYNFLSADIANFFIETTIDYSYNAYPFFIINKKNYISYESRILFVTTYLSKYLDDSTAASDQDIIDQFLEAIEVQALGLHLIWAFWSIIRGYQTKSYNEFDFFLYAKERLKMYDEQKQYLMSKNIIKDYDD

CN(C)c1cc[n+](Cc2ccc(OCCOc3ccc(C[n+]4ccc(N(C)C)cc4)cc3)cc2)cc1 [10a]
IC50 (P. falciparum strain 3D7 [1]): 16 ± 1 nM
inhibition of PfCK depending on substrate (in words) (PfCK [2]): no inhibition of the enzyme in its choline kinase or ethanolamine kinase activity is observed

Clc1ccc2c(N3CCCCCC3)cc[n+](Cc3ccc(OCCOc4ccc(C[n+]5ccc(N6CCCCCC6)c6ccc(Cl)cc65)cc4)cc3)c2c1 [10k]
IC50 (P. falciparum strain 3D7 [1]): 35 ± 4 nM
IC50 (PfCK [2]): 10900 ± 124 nM

CN(C)c1cc[n+](Cc2ccc(-c3ccc(C[n+]4ccc(N5CCCC5)cc4)cc3)cc2)cc1 [BR-23]
IC50 (P. falciparum strain 3D7 [1]): 3 ± 0.2 nM
inhibition of PfCK depending on substrate (in words) (PfCK [2]): only had inhibitory activity when the enzyme-substrate was ethanolamine
IC50 (PfCK [2]): 276000 nM

CN(C)c1cc[n+](Cc2ccc(CCCCc3ccc(C[n+]4ccc(N5CCCC5)cc4)cc3)cc2)cc1 [BR-25]
IC50 (P. falciparum strain 3D7 [1]): 2 ± 0.3 nM
inhibition of PfCK depending on substrate (in words) (PfCK [2]): only had inhibitory activity when the enzyme-substrate was ethanolamine
IC50 (PfCK [2]): 103000 nM

CN(C)c1cc[n+](Cc2ccc(-c3ccc(C[n+]4ccc(N(C)c5ccc(Cl)cc5)cc4)cc3)cc2)cc1 [BR-31]
IC50 (P. falciparum strain 3D7 [1]): 7 ± 0.6 nM

CN(C)c1cc[n+](Cc2ccc(CCCCc3ccc(C[n+]4ccc(N(C)c5ccc(Cl)cc5)cc4)cc3)cc2)cc1 [BR-33]
IC50 (P. falciparum strain 3D7 [1]): 45 ± 3 nM

[Br-].c1ccc(-c2ccc(C[n+]3cnc(N4CCCC4)c4sccc43)cc2)cc1 [Fa-M1, 1-([1,1’-biphenyl]-4-ylmethyl)-4-(pyrrolidin-1-yl)thieno[3,2-d]pyrimidin-1-ium bromide]
melting point: 295 to 298 °C
IC50 (P. falciparum strain 3D7 [3]; [6]): 41 nM
aggregation [4]: severe aggregation
remaining activity at 25 µM (PfCK [5]): 54.6 ± 11.7%

[Br-].c1ccc(-c2ccc(C[n+]3ccc(N4CCCC4)c4sccc43)cc2)cc1 [Fa-M2, 4-([1,1’-biphenyl]-4-ylmethyl)-7-(pyrrolidin-1-yl)thieno[3,2-b]pyridin-4-ium bromide]
melting point: 271 to 273 °C
IC50 (P. falciparum strain 3D7 [3]; [6]): 48.9 nM
aggregation [4]: severe aggregation
remaining activity at 25 µM (PfCK [5]): 101 ± 13.7%

[Br-].[Br-].c1cc2c(N3CCCC3)nc[n+](Cc3ccc(-c4ccc(C[n+]5cnc(N6CCCC6)c6ccsc65)cn4)nc3)c2s1 [Fg-13, 1,1’-([2,2’-bipyridine]-5,5’-diylbis(methylene))bis(4-(pyrrolidin-1-yl)thieno[2,3-d]pyrimidin-1-ium) bromide]
melting point: 238 to 240 °C
fold difference in antimalarial activity, bipyridinyl vs biphenylic counterparts (P. falciparum strain 3D7 [3]): > 10 fold
IC50 (P. falciparum strain 3D7 [3]; [6]): 143 nM
remaining activity at 25 µM (PfCK [5]): 99.1 ± 12%

[Br-].[Br-].c1cc2c(N3CCCC3)nc[n+](Cc3ccc(CCc4ccc(C[n+]5cnc(N6CCCC6)c6ccsc65)cc4)cc3)c2s1 [Fg-15, 1,1’-((ethane-1,2-diylbis(4,1-phenylene))bis(methylene))bis(4-(pyrrolidin-1-yl)thieno[2,3-d]pyrimidin-1-ium) bromide]
melting point: 293 to 295 °C
IC50 (P. falciparum strain 3D7 [3]; 3D7, Erythrocyte, infected erythrocytes, P. falciparum, read-out: antimalarial activity (IC50), as given in the text): ~11 nM
IC50 (P. falciparum strain 3D7 [3]; [6]): 12.7 nM
remaining activity at 25 µM (PfCK [5]): 97.5 ± 9.22%

[Br-].[Br-].c1cc2c(s1)c(N1CCCC1)nc[n+]2Cc1ccc(CCc2ccc(C[n+]3cnc(N4CCCC4)c4sccc43)cc2)cc1 [Fg-16, 1,1’-((ethane-1,2-diylbis(4,1-phenylene))bis(methylene))bis(4-(pyrrolidin-1-yl)thieno[3,2-d]pyrimidin-1-ium) bromide]
melting point: 231 to 233 °C
IC50 (P. falciparum strain 3D7 [3]; [6]): 20.6 nM
IC50 (PfCK [5]; IC50 PfCK b (compound concentration required to inhibit PfCK enzyme by 50%), substrate choline 4 mM, ATP 2 mM): 26500 ± 2440 nM
remaining activity at 25 µM (PfCK [5]): 79.7 ± 10.3%

[Br-].[Br-].c1cc2c(s1)c(N1CCCC1)nc[n+]2Cc1ccc(-c2ccc(C[n+]3cnc(N4CCCC4)c4sccc43)cn2)nc1 [Fg-17, 1,1’-([2,2’-bipyridine]-5,5’-diylbis(methylene))bis(4-(pyrrolidin-1-yl)thieno[3,2-d]pyrimidin-1-ium) bromide]
melting point: 330 to 332 °C
fold difference in antimalarial activity, bipyridinyl vs biphenylic counterparts (P. falciparum strain 3D7 [3]): > 10 fold
IC50 (P. falciparum strain 3D7 [3]; [6]): 227 nM
remaining activity at 25 µM (PfCK [5]): 50.3 ± 7.88%

[Br-].[Br-].c1cc2c(N3CCCCCC3)nc[n+](Cc3ccc(-c4ccc(C[n+]5cnc(N6CCCCCC6)c6ccsc65)cn4)nc3)c2s1 [Fg-20, 1,1’-([2,2’-bipyridine]-5,5’-diylbis(methylene))bis(4-(azepan-1-yl)thieno[2,3-d]pyrimidin-1-ium) bromide]
melting point: 289 to 291 °C
IC50 (P. falciparum strain 3D7 [3]; [6]): 97.6 nM
remaining activity at 25 µM (PfCK [5]): 96.6 ± 13.1%

[Br-].[Br-].c1cc2c(N3CCCCC3)nc[n+](Cc3ccc(CCc4ccc(C[n+]5cnc(N6CCCCC6)c6ccsc65)cc4)cc3)c2s1 [Fg-31, 1,1’-((ethane-1,2-diylbis(4,1-phenylene))bis(methylene))bis(4-(piperidin-1-yl)thieno[2,3-d]pyrimidin-1-ium) bromide]
melting point: 295 to 297 °C
IC50 (P. falciparum strain 3D7 [3]; [6]): 34.7 nM
remaining activity at 25 µM (PfCK [5]): 87.4 ± 2.2%

[Br-].[Br-].c1cc2c(N3CCCCC3)nc[n+](Cc3ccc(-c4ccc(C[n+]5cnc(N6CCCCC6)c6ccsc65)cn4)nc3)c2s1 [Fg-32, 1,1’-([2,2’-bipyridine]-5,5’-diylbis(methylene))bis(4-(piperidin-1-yl)thieno[2,3-d]pyrimidin-1-ium) bromide]
melting point: 267 to 269 °C
IC50 (P. falciparum strain 3D7 [3]; [6]): > 250 nM
remaining activity at 25 µM (PfCK [5]): 83.8 ± 9.53%

C[N+]1(C)CCOC(O)(c2ccc(-c3ccc(C4(O)C[N+](C)(C)CCO4)cc3)cc2)C1 (stereo not drawn) [HC-3]
IC50 (P. falciparum strain 3D7 [1]): > 50000 nM

CN(C)c1cc[n+](Cc2ccc(CCCCc3ccc(C[n+]4ccc(N(C)C)cc4)cc3)cc2)cc1 [MN58b]
IC50 (P. falciparum strain 3D7 [1]): 3.5 nM

C/[N+](c1ccc(Cl)cc1)=c1\ccn(Cc2ccc(-c3ccc(Cn4cc/c(=[N+](/C)c5ccc(Cl)cc5)c5ccccc54)cc3)cc2)c2ccccc12 [RSM-932A]
IC50 (P. falciparum strain 3D7 [1]): 26.5 nM
